Experimental data published in publication PMC12514842, “Ligand binding Pro‐miscuity of acylpeptide hydrolase, structural analysis of a detoxifying serine hydrolase” (Protein Science : A Publication of the Protein Society, 2025).

Key:
PhAPEH (PhAAP) = target: T1, PhAPEH (PhAAP) (Pyrococcus horikoshii, UniProt O58323); assay: hydrolysis of p-nitroanilide substrate; assay type: biochemical
T1 construct: gene PH0594; produced by the authors; details only in Data S1 chapter II
T1 sequence (O58323 1-622): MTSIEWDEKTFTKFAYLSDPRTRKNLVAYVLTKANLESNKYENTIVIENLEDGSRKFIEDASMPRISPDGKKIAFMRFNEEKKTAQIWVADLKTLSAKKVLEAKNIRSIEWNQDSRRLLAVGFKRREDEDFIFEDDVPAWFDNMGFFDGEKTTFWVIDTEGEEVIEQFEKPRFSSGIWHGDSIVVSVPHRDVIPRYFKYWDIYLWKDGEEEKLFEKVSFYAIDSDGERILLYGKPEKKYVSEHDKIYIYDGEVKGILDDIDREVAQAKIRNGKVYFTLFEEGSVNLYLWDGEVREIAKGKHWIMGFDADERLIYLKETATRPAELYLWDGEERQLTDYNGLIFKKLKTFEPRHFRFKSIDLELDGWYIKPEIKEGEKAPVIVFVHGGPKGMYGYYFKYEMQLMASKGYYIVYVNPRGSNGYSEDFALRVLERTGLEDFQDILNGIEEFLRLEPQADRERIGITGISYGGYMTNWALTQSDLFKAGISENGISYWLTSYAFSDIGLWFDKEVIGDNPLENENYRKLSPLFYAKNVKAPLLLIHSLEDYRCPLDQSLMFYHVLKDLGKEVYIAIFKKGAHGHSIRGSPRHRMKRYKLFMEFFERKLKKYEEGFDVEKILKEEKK

ApAPEH (ApAAP) = target: T2, ApAPEH (ApAAP) (Aeropyrum pernix, UniProt Q9YBQ2); assay: hydrolysis of p-nitroanilide substrate; assay type: biochemical
T2 construct: gene APE_1547.1; produced by the authors; details only in Data S1 chapter II
T2 sequence (Q9YBQ2 whole entry): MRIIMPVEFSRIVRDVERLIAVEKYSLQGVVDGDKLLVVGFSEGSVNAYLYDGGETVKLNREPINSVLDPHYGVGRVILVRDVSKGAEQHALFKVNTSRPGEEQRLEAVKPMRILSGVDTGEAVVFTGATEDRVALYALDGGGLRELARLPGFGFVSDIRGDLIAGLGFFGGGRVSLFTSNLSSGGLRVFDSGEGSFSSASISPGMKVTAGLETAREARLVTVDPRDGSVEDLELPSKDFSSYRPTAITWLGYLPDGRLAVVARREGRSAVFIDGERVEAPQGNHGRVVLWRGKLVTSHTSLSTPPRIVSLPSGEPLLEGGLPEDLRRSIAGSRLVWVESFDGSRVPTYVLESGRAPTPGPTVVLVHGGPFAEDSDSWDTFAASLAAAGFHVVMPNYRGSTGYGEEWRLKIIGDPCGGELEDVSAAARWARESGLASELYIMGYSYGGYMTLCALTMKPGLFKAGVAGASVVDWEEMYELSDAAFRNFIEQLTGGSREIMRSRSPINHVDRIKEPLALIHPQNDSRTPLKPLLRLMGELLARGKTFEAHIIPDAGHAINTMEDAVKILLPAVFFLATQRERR

[1] = target: T3, pAPEH (porcine liver acylpeptide hydrolase, acylaminoacyl-peptidase, AAP) (Sus scrofa, UniProt P19205); assay: cryo-EM structure of complex ([…] A); assay type: binding; conditions: covalent; Ser587 and His707; 10-fold molar excess, pH 7.5, 37 °C, 1 h
T3 construct: gene APEH; native, purified from porcine liver; homotetramer; catalytic Ser587, Asp675, His707
T3 sequence (P19205 1-732): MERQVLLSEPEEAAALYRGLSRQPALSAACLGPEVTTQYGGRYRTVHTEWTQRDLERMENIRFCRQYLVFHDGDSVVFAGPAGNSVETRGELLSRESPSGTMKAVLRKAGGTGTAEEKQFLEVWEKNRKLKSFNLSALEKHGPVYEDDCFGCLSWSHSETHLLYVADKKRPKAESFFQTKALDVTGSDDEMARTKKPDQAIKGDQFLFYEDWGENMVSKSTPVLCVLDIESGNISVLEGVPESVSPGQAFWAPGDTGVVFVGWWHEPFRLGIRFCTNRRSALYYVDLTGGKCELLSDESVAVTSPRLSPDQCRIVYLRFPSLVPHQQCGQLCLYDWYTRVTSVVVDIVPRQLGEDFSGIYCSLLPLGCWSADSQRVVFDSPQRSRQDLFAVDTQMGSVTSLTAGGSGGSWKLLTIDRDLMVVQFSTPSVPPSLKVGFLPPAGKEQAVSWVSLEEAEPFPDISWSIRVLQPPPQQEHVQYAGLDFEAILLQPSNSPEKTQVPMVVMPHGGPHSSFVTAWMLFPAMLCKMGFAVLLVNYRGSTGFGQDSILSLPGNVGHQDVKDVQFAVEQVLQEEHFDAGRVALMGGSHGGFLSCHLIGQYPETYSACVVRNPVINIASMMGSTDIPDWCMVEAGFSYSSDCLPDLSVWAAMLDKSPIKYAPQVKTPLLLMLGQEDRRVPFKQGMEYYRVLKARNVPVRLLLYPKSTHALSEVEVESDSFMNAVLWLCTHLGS

[2] = target: T3, pAPEH (porcine liver acylpeptide hydrolase, acylaminoacyl-peptidase, AAP); assay type: binding
[3] = target: T3, pAPEH (porcine liver acylpeptide hydrolase, acylaminoacyl-peptidase, AAP); assay type: binding; remark: listed apart in the source

SMILES: CC(=O)N[C@@H](CC(C)C)C(=O)Nc1ccc([N+](=O)[O-])cc1 [Ac-Leu-pNA]
- hydrolysis of p-nitroanilide substrate (PhAPEH (PhAAP)): archaeal variants are quite selective toward their specific substrate Ac‐Leu‐pNA
- hydrolysis of p-nitroanilide substrate (ApAPEH (ApAAP)): archaeal variants are quite selective toward their specific substrate Ac‐Leu‐pNA

SMILES: CC(=O)N[C@@H](C)C(=O)CCl [ligand 1, acetyl-alanyl-chloromethyl ketone]
- cryo-EM structure of complex (3.19 A) [1]: bound covalently to the active Ser587 and His707 (Figure 2a) of each monomer

SMILES: COP(=O)(OC)OC=C(Cl)Cl [ligand 2, dichlorvos]
- cryo-EM structure of complex (2.65 A) [2]: Dimethoxy‐phosphate (DMP) residue of dichlorvos is bound covalently to the active Ser587

SMILES: NCCc1ccc(S(=O)(=O)F)cc1 [ligand 3, 4-(2-aminoethyl)benzenesulfonyl fluoride]
- cryo-EM structure of complex (2.78 A) [3]: thus the inhibitor directly coordinates to the active Ser
